According to patent US20220127297A1, “Novel Antibacterial 3"-Derivatives Of 4,6-Disubstituted 2,5-Dideoxystreptamine Aminoglycoside Antibiotics” (AGILeBiotics B.V., priority 2018, published 2022):
In brackets after ≈: the same amount, converted by molar mass.

Assays:
E. coli ATCC25922 strain = assay: MIC 50, broth micro-dilution, wild-type Escherichia coli; assay type: cell-based; settings: Escherichia coli, ATCC25922, 18 h, MH2, 18 h
Description: (§1) 3.1 Against E. coli Strains
(§2) Tested reference compounds. Amikacin sulfate (Cat. No. 01693, Chem-Impex), Gentamicin sulfate (Cat. No. G4918, Sigma Aldrich).
(§3) Microbial strains. E. coli ATCC 25922, E. coli ATCC 25922/pET-9b(+), E. coli ATCC 25922/pAT21-1, E. coli ATCC 25922/pBluescript::AAC(6′)-Ie/APH(2″)-Ia, E. coli ATCC 25922/pBlue_lpp_aacC3_rrnC, E. coli ATCC 25922/pSET152.
(§4) Culture media and equipment. BBL™ Mueller Hinton Broth 2 (Lot. BCBW1143, Cat. No. 70192, Sigma); Kanamycin A (Cat. No. A1493, AppliChem); 96-well deep well plate, 1 mL (Cat. No. 0030506.200, Eppendorf); Plate lids (Cat. No. 0030131.525, Eppendorf); 96-well plate, F-bottom (Cat. No. 781602, Brand; Incubator, Infors Multitron Pro); Laminar flow (Heraeus KS12); UV/VIS meter (Eppendorf BioPhotometer Plus); Platereader (Tecan Sunrise).
(§5) Compound preparation. Compounds were prepared in MH2 media at a concentration of 5 mM and stored at 4° C. For testing, solutions of 128 μM were prepared in MH2. Out of these working solutions, 400 μL was transferred to wells in the first column of 96-well deep well plates. Each compound was transferred in triplicate. Plates were previously filled with 200 μL of MH2 media in all wells except for the wells in the first column. After compound and antibiotic addition, the compounds were serial two-fold diluted by transferring 200 μL from the first to the second column, then from the second to the third column and so on. Finally, 200 μL was removed from the last column.
(§6) Inoculum preparation. Microorganisms used were all revived from 20% glycerol (40% v/v glycerol in water was diluted with MH2) storage at −80° C. by inoculating them in 5 mL MH2. inoculums of E. coli containing a plasmid were selected for by adding 50 μg/mL KanaA. The Inoculums were grown to an optical density (measured by UV/Vis spectroscopy) of 0.6-0.8 at 600 nm. Out of these suspensions, actual inoculums were prepared by diluting them to an optical density (OD) of 0.1 in MH2 media. From these inoculums, 200 μL was transferred to each well, resulting in a final compound concentration range of 64 μM-31.3 nM. All plates were incubated at 900 rpm and 70% rH for 18 h at 37° C.
MIC determination. After 18 h of growth, 200 μL was transferred to a 96-well F-bottom plate. The optical density was determined by a plate reader at 600 nm, with 10 s shaking before reading. Triplicate measurements were averaged, and a growth curve was plotted in Microsoft Excel. The first column in which the growth reached half the value of maximum growth was determined as the MIC50 value for that particular compound.
MIC50. The MIC50 of a compound was assigned at which the bacterial growth reached half the value of maximum growth.

E. coli (APH(3′)IIIa) = assay: MIC 50, broth micro-dilution, E. coli expressing APH(3′)IIIa; assay type: cell-based, Escherichia coli; settings: Escherichia coli, ATCC25922, ATCC25922 harboring plasmid encoding APH(3′)IIIa
Method: (§7) Plasmid transformation. Approximately 500 ng of the pET-9b(+) (Cat. No. 69432-3, Merck), pAT21-1 (provided by Prof. Dr. Patrice Courvalin, M.D., Pasteur Institute, France; prepared according to Trieu-Cuot et. al, Mol. Gen. Genet. 198(2), 348 (1985)), pBluescript::AAC(6′)-Ie/APH(2″)-Ia (provided by Prof. Dr. Sergei Vakulenko, M.D., University of Notre Dame, Ind., USA; prepared according to S. B. Vakulenko et. al., J. Biol. Chem. 287 (52), 43262 (2012)), pBlue_lpp_aacC3_rrnC and pSET152 (Cat. No. PVT3395, Life Science Market; prepared according to Bierman et al., Gene 116 (1), 43 (1992)) plasmids, encoding APH(3′)-Ia (SEQ ID NO:2), APH(3′)-IIIa (SEQ ID NO:3), AAC(6′)Ie-APH(2″)-Ia (SEQ ID NO:4), AAC(3)-III (SEQ ID NO:1), and AAC(3)-IV (SEQ ID NO:5) respectively, were individually incubated in a vial of competent cells for 15 min on ice. The cells were subsequently heated to 42° C. for 90 s, and cooled on ice for 1 min. After addition of 900 μL LB, the cells were incubated for 1 h at 37° C. and 200 rpm. Cells were plated on LB-agar supplemented with 50 μg/mL KanaA and incubated for 18 h at 37° C. The next day, a single colony was inoculated in 5 mL LB supplemented with 50 μg/mL and grown for 18 h at 37° C. and 200 rpm. A 200 μL sample of each culture was diluted with 200 μL of 40% v/v glycerol in water, and stored at −80° C. The plasmid was purified from the remaining culture using the Plasmid Miniprep kit. Plasmid DNA was investigated by Eurofins Genomics (Germany) to confirm the identity of the aminoglycoside resistance genes.
as §1, §2, §3, §4, §5, §6
(§8) MIC determination. After 18 h of growth, 200 μL was transferred to a 96-well F-bottom plate. The optical density was determined by a plate reader at 600 nm, with 10 s shaking before reading. Triplicate measurements were averaged, and a growth curve was plotted in Microsoft Excel. […]

E. coli (APH(3′)Ia) = assay: MIC 50, broth micro-dilution, E. coli expressing APH(3′)Ia; assay type: cell-based, Escherichia coli; settings: Escherichia coli, ATCC25922, ATCC25922 harboring plasmid encoding APH(3′)Ia
Method: as §7, §1, §2, §3, §4, §5, §6, §8

[1] = test system: E. coli (AAC(6′)Ie-APH(2″)Ia); assay: MIC 50, broth micro-dilution, E. coli expressing AAC(6′)Ie-APH(2″)Ia; assay type: cell-based, Escherichia coli; settings: Escherichia coli, ATCC25922, ATCC25922 harboring plasmid encoding AAC(6′)Ie-APH(2″)Ia
Method: as §7, §1, §2, §3, §4, §5, §6, §8

E. coli (AAC(3)III) = assay: MIC 50, broth micro-dilution, E. coli expressing AAC(3)III; assay type: cell-based, Escherichia coli; settings: Escherichia coli, ATCC25922, ATCC25922 harboring plasmid encoding AAC(3)III
Description: Cloning resistant enzymes. An Escherichia coli codon optimized gene encoding AAC(3)-III (GenBank acc.nr. X55652.1; SEQ ID NO:1), including a promoter and terminator sequence, was synthesized by Integrated DNA Technologies, Belgium. The synthesized gene and pBluescript II KS(+) plasmid were digested using the restriction enzymes SacI and SalI, and purified from a 1% TBE-agarose gel using the illustra Gel Band purification kit. The purified linear plasmid and T4 DNA ligase were used to ligate aac(3)-III under control of the constitutive lipoprotein Ipp promoter and ribosomal RNA rrnC terminator, resulting in pBlue_Ipp_aacC3_rrnC.
as §7, §1, §2, §3, §4, §5
Inoculum preparation. Microorganisms used were all revived from 20% glycerol (40% v/v glycerol in water was diluted with MH2) storage at −80° C. by inoculating them in 5 mL MH2. inoculums of E. coli containing a plasmid were selected for by adding 50 μg/mL KanaA.

E. coli (AAC(3)IV) = assay: MIC 50, broth micro-dilution, E. coli expressing AAC(3)IV; assay type: cell-based, Escherichia coli; settings: Escherichia coli, ATCC25922, ATCC25922 harboring plasmid encoding AAC(3)IV
Method: as §7, §1, §2, §3, §4, §5, §6, §8

SMILES: N=C(N)NC1[C@@H](O)C(OC2[C@@H](F)[C@H](O[C@H]3OC(CN)[C@@H](O)CC3N)C(N)C[C@H]2NC(=O)[C@@H](F)CCN)O[C@H](CO)[C@H]1O (stereo partly drawn) [ABX5034, Tobra-(AFB)-F-Gua]
- MIC50 (E. coli ATCC25922 strain): 1 µM (≈ 0.615 µg/mL)
- MIC50 (E. coli (APH(3′)IIIa)): 0.5 to 1 µM (≈ 0.307 to 0.615 µg/mL)
- MIC50 (E. coli (APH(3′)Ia)): 1 µM (≈ 0.615 µg/mL)
- MIC50 [1]: 1 µM (≈ 0.615 µg/mL)
- MIC50 (E. coli (AAC(3)III)): 0.5 to 1 µM (≈ 0.307 to 0.615 µg/mL)
- MIC50 (E. coli (AAC(3)IV)): 2 to 4 µM (≈ 1.23 to 2.46 µg/mL)
